Test results from ChEMBL document CHEMBL1201862, “PubChem BioAssay data set” (2004).
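48-hour exposure; five concentrations; linearly interpolated endpoints. Abbreviation: GI50, concentration required for 50% inhibition of growth.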 Calls of active or inactive are those of the source. Cut-off read from the data, not from the text of the source: active = GI50 up to about 1.1 µM and inactive = higher.

Columns and labels:
Assay in all cases: growth of human tumour cells (NCI), 48 h
HOP-62 = system: HOP-62
MOLT-4 = system: MOLT-4
LOX IMVI = system: LOX IMVI
DU-145 = system: DU-145
OVCAR-5 = system: OVCAR-5
SK-MEL-28 = system: SK-MEL-28
SK-OV-3 = system: SK-OV-3
OVCAR-3 = system: OVCAR-3
UO-31 = system: UO-31
U-251 = system: U-251
SN12C = system: SN12C
DLD-1 = system: DLD-1
Hs-578T = system: Hs-578T
A498 = system: A498
NCI-H23 = system: NCI-H23
MDA-MB-435 = system: MDA-MB-435
T47D = system: T47D
RPMI-8226 = system: RPMI-8226
IGROV-1 = system: IGROV-1
NCI-H522 = system: NCI-H522
SNB-78 = system: SNB-78
M19-MEL = system: M19-MEL
NCI-H226 = system: NCI-H226
NCI-H460 = system: NCI-H460
SF-539 = system: SF-539
COLO 205 = system: COLO 205
UACC-257 = system: UACC-257
HCC 2998 = system: HCC 2998
K562 = system: K562
SK-MEL-2 = system: SK-MEL-2
DMS-114 = system: DMS-114
CAKI-1 = system: CAKI-1
OVCAR-8 = system: OVCAR-8
HCT-116 = system: HCT-116
SF-295 = system: SF-295
SNB-75 = system: SNB-75
SW-620 = system: SW-620
SK-MEL-5 = system: SK-MEL-5
DMS-273 = system: DMS-273
M14 = system: M14
SR = system: SR
UACC-62 = system: UACC-62
Malme-3M = system: Malme-3M
MDA-MB-231 = system: MDA-MB-231
PC-3 = system: PC-3
HL-60 = system: HL-60
EKVX = system: EKVX
RXF 393 = system: RXF 393
OVCAR-4 = system: OVCAR-4
HCT-15 = system: HCT-15
786-0 = system: 786-0
KM-20L2 = system: KM-20L2
KM12 = system: KM12
SNB-19 = system: SNB-19
HT-29 = system: HT-29
SF-268 = system: SF-268
HOP-18 = system: HOP-18
ACHN = system: ACHN
A549 = system: A549
HOP-92 = system: HOP-92
XF498 = system: XF498
LXFL 529 = system: LXFL 529
TK-10 = system: TK-10
NCI/ADR-RES = system: NCI/ADR-RES
MCF7 = system: MCF7
CCRF-CEM = system: CCRF-CEM
RXF 631 = system: RXF 631

## COc1cc(/C=C/c2ccc(/C=C/c3cc(OC)c(OC)c(OC)c3)cc2)cc(OC)c1OC
HOP-62
  GI50: 16.6 µM (inactive)
MOLT-4
  GI50: > 100 µM (inactive)
LOX IMVI
  GI50: 34.4 µM (inactive)
DU-145
  GI50: 88.7 µM (inactive)
OVCAR-5
  GI50: 60.5 µM (inactive)
SK-MEL-28
  GI50: 26.1 µM (inactive)
SK-OV-3
  GI50: 6 µM (inactive)
OVCAR-3
  GI50: 25.2 µM (inactive)
UO-31
  GI50: 36.1 µM (inactive)
U-251
  GI50: 13.3 µM (inactive)
SN12C
  GI50: 56.8 µM (inactive)
DLD-1
  GI50: 42.3 µM (inactive)
Hs-578T
  GI50: 18.9 µM (inactive)
A498
  GI50: 10.5 µM (inactive)
NCI-H23
  GI50: 12.3 µM (inactive)
MDA-MB-435
  GI50: 55.2 µM (inactive)
T47D
  GI50: 3.39 µM (inactive)
RPMI-8226
  GI50: 41.6 µM (inactive)
IGROV-1
  GI50: 26.5 µM (inactive)
NCI-H522
  GI50: 8.11 µM (inactive)
SNB-78
  GI50: 26.1 µM (inactive)
M19-MEL
  GI50: 32.9 µM (inactive)
NCI-H226
  GI50: 20.3 µM (inactive)
NCI-H460
  GI50: 25.5 µM (inactive)
SF-539
  GI50: 4.6 µM (inactive)
COLO 205
  GI50: 51.3 µM (inactive)
UACC-257
  GI50: 58.7 µM (inactive)
HCC 2998
  GI50: 22.2 µM (inactive)
K562
  GI50: 96.2 µM (inactive)
SK-MEL-2
  GI50: 20.7 µM (inactive)
DMS-114
  GI50: 22.4 µM (inactive)
CAKI-1
  GI50: 21.6 µM (inactive)
OVCAR-8
  GI50: 12.2 µM (inactive)
HCT-116
  GI50: 28.7 µM (inactive)
SF-295
  GI50: 10.9 µM (inactive)
SNB-75
  GI50: 6.34 µM (inactive)
SW-620
  GI50: > 84.9 µM (inactive)
SK-MEL-5
  GI50: 34.4 µM (inactive)
DMS-273
  GI50: 14.6 µM (inactive)
M14
  GI50: 39.3 µM (inactive)
SR
  GI50: > 100 µM (inactive)
UACC-62
  GI50: 7.89 µM (inactive)
Malme-3M
  GI50: 20.3 µM (inactive)
MDA-MB-231
  GI50: 19.9 µM (inactive)
PC-3
  GI50: 27.5 µM (inactive)
HL-60
  GI50: > 66.5 µM (inactive)
EKVX
  GI50: > 46.9 µM (inactive)
RXF 393
  GI50: 6.68 µM (inactive)
OVCAR-4
  GI50: 3.98 µM (inactive)
HCT-15
  GI50: > 100 µM
786-0
  GI50: 7.94 µM (inactive)
KM-20L2
  GI50: 20.8 µM (inactive)
KM12
  GI50: 29.5 µM (inactive)
SNB-19
  GI50: 13.6 µM (inactive)
HT-29
  GI50: 8.26 µM (inactive)
SF-268
  GI50: 11.7 µM (inactive)
HOP-18
  GI50: 32.1 µM (inactive)
ACHN
  GI50: 16.3 µM (inactive)
A549
  GI50: 40.9 µM (inactive)
HOP-92
  GI50: 15.4 µM (inactive)
XF498
  GI50: 17 µM (inactive)
LXFL 529
  GI50: 11.9 µM (inactive)
TK-10
  GI50: 17.6 µM (inactive)
NCI/ADR-RES
  GI50: 22.2 µM (inactive)
MCF7
  GI50: > 100 µM (inactive)
CCRF-CEM
  GI50: > 100 µM (inactive)

## CN1C[C@@H]2CC(=O)CC[C@@H]2C[C@H]1C#N
HOP-62
  GI50: > 100 µM (inactive)
MOLT-4
  GI50: > 100 µM (inactive)
LOX IMVI
  GI50: > 100 µM (inactive)
OVCAR-5
  GI50: > 100 µM (inactive)
SK-OV-3
  GI50: > 100 µM (inactive)
OVCAR-3
  GI50: > 100 µM (inactive)
UO-31
  GI50: > 100 µM (inactive)
SN12C
  GI50: > 100 µM (inactive)
DLD-1
  GI50: > 100 µM (inactive)
A498
  GI50: > 100 µM (inactive)
RPMI-8226
  GI50: > 100 µM (inactive)
RXF 631
  GI50: > 100 µM (inactive)
IGROV-1
  GI50: > 100 µM (inactive)
NCI-H522
  GI50: > 100 µM (inactive)
NCI-H226
  GI50: > 100 µM (inactive)
NCI-H460
  GI50: > 100 µM (inactive)
UACC-257
  GI50: > 100 µM (inactive)
HCC 2998
  GI50: > 100 µM (inactive)
K562
  GI50: > 100 µM (inactive)
SK-MEL-2
  GI50: > 100 µM (inactive)
DMS-114
  GI50: > 100 µM (inactive)
CAKI-1
  GI50: > 100 µM (inactive)
OVCAR-8
  GI50: > 100 µM (inactive)
HCT-116
  GI50: > 100 µM (inactive)
SF-295
  GI50: > 100 µM (inactive)
SNB-75
  GI50: > 100 µM (inactive)
SW-620
  GI50: > 100 µM (inactive)
SK-MEL-5
  GI50: > 100 µM (inactive)
M14
  GI50: > 100 µM (inactive)
UACC-62
  GI50: > 100 µM (inactive)
Malme-3M
  GI50: > 100 µM (inactive)
HL-60
  GI50: > 100 µM (inactive)
OVCAR-4
  GI50: > 100 µM (inactive)
HCT-15
  GI50: > 100 µM
786-0
  GI50: > 100 µM (inactive)
KM-20L2
  GI50: > 100 µM (inactive)
KM12
  GI50: > 100 µM (inactive)
SNB-19
  GI50: > 100 µM (inactive)
HT-29
  GI50: > 100 µM (inactive)
SF-268
  GI50: > 100 µM (inactive)
ACHN
  GI50: > 100 µM (inactive)
A549
  GI50: > 100 µM (inactive)
HOP-92
  GI50: > 100 µM (inactive)
XF498
  GI50: > 100 µM (inactive)
LXFL 529
  GI50: > 100 µM (inactive)
CCRF-CEM
  GI50: > 100 µM (inactive)
